Source: US20040086900A1, “Cloning of mammalian genes in microbial organisms and methods for pharmacological screening” (priority 1990, published 2004)
“Also recorded” adds a separate entry of the source.

Experiments:
[1] = target: T1, rat DPD phosphodiesterase (Rattus norvegicus, UniProt P14646); test: Phosphodiesterase activity assay, cell free extract of 10 DAB yeast expressing rat DPD; format: biochemical; details: for Inhibition (%): DPD-1 extract
T1 construct: A large open reading frame of 562 codons was found; The first ATG appears at codon 46; made in house; host or cells: S. cerevisiae strain 10 DAB (pde1- pde2-) transformed with pADPD, cell free extract
T1 sequence (P14646 220-736): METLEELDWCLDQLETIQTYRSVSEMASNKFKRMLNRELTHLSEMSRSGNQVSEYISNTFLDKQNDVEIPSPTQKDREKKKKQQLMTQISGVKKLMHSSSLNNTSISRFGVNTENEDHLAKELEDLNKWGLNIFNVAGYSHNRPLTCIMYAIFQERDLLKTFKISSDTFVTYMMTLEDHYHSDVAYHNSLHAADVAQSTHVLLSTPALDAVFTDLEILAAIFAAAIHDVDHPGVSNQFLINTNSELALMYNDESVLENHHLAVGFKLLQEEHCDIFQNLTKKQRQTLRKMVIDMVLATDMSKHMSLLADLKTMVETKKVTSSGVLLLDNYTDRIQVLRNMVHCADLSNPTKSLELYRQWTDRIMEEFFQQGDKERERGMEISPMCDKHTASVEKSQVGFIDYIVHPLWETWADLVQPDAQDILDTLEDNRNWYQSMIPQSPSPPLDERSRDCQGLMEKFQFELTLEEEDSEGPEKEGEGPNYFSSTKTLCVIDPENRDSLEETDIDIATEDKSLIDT
Method: In order to analyse the biochemical properties of the DPD gene product, crude cell extracts were prepared from one liter cultures of 10 DAB which had been transformed with either pADNS or pADPD.
(§1) Yeast cells were grown at 30° C. for 36 hours in one liter cultures of synthetic media (SC-leucine). Cells were harvested and washed with buffer C ([…], 0.1 mM MgCl2, 0.1 mM EGTA, 1 mM β-mercaptoethanol), were resuspended in 30 ml buffer C with 50 μl 1M PMSF, and were disrupted with a French press. The extracts were centrifuged at 1,600 g for 10 min and the supernatants were spun at 18,000 g for 90 min (4° C.). The supernatant was assayed for phosphodiesterase activity (Sass, P., et al., Proc. Natl. Acad. Sci. USA 83:9303 (1986); Nikawa, J., et al., Mol. Cell. Biol. 7:3629 (1987)). All the reactions contained Tris-HCl (pH7.5) (100 mM), cell extract (50 μg protein/ml), 5′-nucleotidase (Sigma, 20 ng/ml) and 10 MM Mg^2+ (unless otherwise stated) and the indicated cyclic nucleotide concentrations. Assays for the cGMP hydrolysis used 1.5 μM cGMP. […] Reactions were incubated for 10 min at 30° C. and stopped with 5× stop solution (250 mM EDTA, 25 mM AMP, 100 mMcAMP).
This example illustrates the use of the genes and cells described in Example 1 to identify chemical compounds which inhibit the activity of a known enzyme, the rat DPD phosphodiesterase. To test the efficiency of known inhibitory compounds, cell free extracts were made as described in Phosphodiesterase Assays. Yeast cells deficient in endogenous phosphodiesterase (10 DAB), and expressing the rat DPD or yeast PDE2 genes from the described expression vector, were used. One liter cultures were harvested, washed in buffer C (20 mM MES/0.1 mM MgCl2/0.1 mM EGTA/1 mM 2-mercaptoethanol), resuspended in buffer C containing 1.5 mM phenylmethylsulfonyl fluoride, and disrupted in a French press at 4° C. Cell extracts were clarified at 100 g for 10 minutes and at 18000 g for 90 minutes. […] The cytosolic fraction was assayed in the presence or absence of inhibitory compounds. […] The percent inhibition represents the decrease in phosphodiesterase activity relative to measurements made in the absence of inhibitors.

[2] = target: T2, yeast PDE2 (Saccharomyces cerevisiae, UniProt P06776); test: Phosphodiesterase activity assay, cell free extract of 10 DAB yeast expressing yeast PDE2; format: biochemical, S. cerevisiae
T2 construct: made in house; host or cells: S. cerevisiae strain 10 DAB (pde1- pde2-), cell free extract
T2 sequence (P06776 whole entry): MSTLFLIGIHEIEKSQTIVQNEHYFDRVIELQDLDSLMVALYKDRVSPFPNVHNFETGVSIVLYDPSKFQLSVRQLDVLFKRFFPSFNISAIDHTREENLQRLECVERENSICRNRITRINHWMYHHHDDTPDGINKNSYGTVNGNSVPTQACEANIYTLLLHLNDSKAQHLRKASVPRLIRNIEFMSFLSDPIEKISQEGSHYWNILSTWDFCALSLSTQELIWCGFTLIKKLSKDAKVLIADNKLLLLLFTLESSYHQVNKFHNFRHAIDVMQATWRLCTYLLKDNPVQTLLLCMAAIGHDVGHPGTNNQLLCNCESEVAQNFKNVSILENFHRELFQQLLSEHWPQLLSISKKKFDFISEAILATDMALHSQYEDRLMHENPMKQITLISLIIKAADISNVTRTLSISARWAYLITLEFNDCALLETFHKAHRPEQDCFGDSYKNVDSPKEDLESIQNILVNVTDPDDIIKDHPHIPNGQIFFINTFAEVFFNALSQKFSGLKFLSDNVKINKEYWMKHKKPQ
Method: as §1
This example illustrates the use of the genes and cells described in Example 1 to identify chemical compounds which inhibit the activity of a known enzyme, the rat DPD phosphodiesterase. To test the efficiency of known inhibitory compounds, cell free extracts were made as described in Phosphodiesterase Assays. Yeast cells deficient in endogenous phosphodiesterase (10 DAB), and expressing the rat DPD or yeast PDE2 genes from the described expression vector, were used. One liter cultures were harvested, washed in buffer C (20 mM MES/0.1 mM MgCl2/0.1 mM EGTA/1 mM 2-mercaptoethanol), resuspended in buffer C containing 1.5 mM phenylmethylsulfonyl fluoride, and disrupted in a French press at 4° C. Cell extracts were clarified at 100 g for 10 minutes and at 18000 g for 90 minutes. […] About 10^4 cpm were obtained for 10 minutes reactions and backgrounds (phosphodiesterase deficient-yeast or no extract) were about 300 cpm. The cytosolic fraction was assayed in the presence or absence of inhibitory compounds. […] The percent inhibition represents the decrease in phosphodiesterase activity relative to measurements made in the absence of inhibitors.

[3] = system: 10 DAB cells expressing DPD; test: Heat shock survival of 10 DAB yeast cells expressing DPD; format: cell-based, S. cerevisiae; details: 100 μM, 40 minutes pretreatment, heat shock 50° C. 30 minutes
Excerpt: This example illustrates the use of the genes and methods described to identify chemical compounds which inhibit the function of the encoded mammalian proteins expressed in yeast, even when the function of that protein is not known. 10DAB cells, which are phosphodiesterase deficient, are sensitive to heat shock. As already discussed, when these cells express DPD, they become resistant to heat shock. […] 10 DAB cells expressing DPD were maintained in rich medium (YPD) for three days at stationary phase. […] Control cultures were not treated with any inhibitor. These cultures were then heat shocked in glass tubes at 50° C. for 30 minutes. One microliter of each culture was plated.

Nc1nc2c(ncn2[C@@H]2O[C@@H]3COP(=O)(O)O[C@H]3[C@H]2O)c(=O)[nH]1 [cGMP]
Inhibition of cAMP phosphodiesterase activity by cGMP ([1]; 5 μM cAMP, cGMP 100 fold over substrate (up to 500 μM)): unable to inhibit

CCCCOc1cc(CC2CNC(=O)N2)ccc1OC (stereo not drawn) [R020 1724]
Inhibition (%) ([1]; agent 0.1 μM): 35. %
Inhibition (%) ([1]; agent 1.0 μM): 52. %
Inhibition (%) ([1]; agent 10.0 μM): 79. %
Inhibition (%) ([1]; agent 100.0 μM): 92. %
Inhibition of enzymatic activity of the rat DPD gene product (in words) ([1]; cell extract, summary of Example 3): most effective inhibitors of DPD activity; also recorded: inhibited
Inhibition (%) ([2]; agent 100 μM): 3.0%

Cn1c(=O)c2[nH]cnc2n(C)c1=O [Theophylline]
inhibition at 250 µM ([2]; agent 250 μM): 0%

CC(C)Cn1c(=O)n(C)c(=O)c2[nH]cnc21 [IBMX]
Inhibition (%) ([1]; agent 250 μM): 87. %
Inhibition (%) ([2]; agent 250 μM): 0.0%

COc1ccc(C2CNC(=O)C2)cc1OC1CCCC1 (stereo not drawn) [Rolipram]
Heat shock sensitivity after treatment (inhibition of DPD function) [3]: much more sensitive to heat shock; also recorded: suppression of heat shock resistance
inhibition at 100 µM ([2]; agent 100 μM): 0%
